The source made the active and inactive calls. No rule for the calls is given here.
System: rodent carcinogenicity bioassays, tumor incidence
Test: CCRIS carcinogenicity studies
Conditions: Dose: 0, Dose: 0
In short: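 Archive of carcinogenicity, mutagenicity, tumor promotion and tumor inhibition results drawn from journals, NCI reports and other sources, expert-reviewed; covers 1985-2011 and is no longer updated.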

SMILES: c1ccccc1
- carcinogen call (Species: Mouse, Strain/Sex: C57BL/6 (heterozygous Trp53-deficient)/Male, Route: Inhalation, 100, 300 ppm 6 hr/d, 5 d/wk for 26 wks, then no exposure for lifetime, 100, 300 ppm 6 hr/d, 5 d/wk for 26 wks, then no exposure for lifetime, Tumor Site: Type of Lesion: Blood: hematopoietic neoplasms (325, 83,100%). Lymphoid tissue: thymic lymphoma (4, 50, 25%)): active; positive (highest dose)
- carcinogen call (Species: Mouse, Strain/Sex: C57BL/6 (homozygous Trp53-deficient)/Male, Route: Inhalation, 33, 100, 300 ppm 6 hr/d, 5 d/wk for 26 wks, then no exposure for lifetime, 33, 100, 300 ppm 6 hr/d, 5 d/wk for 26 wks, then no exposure for lifetime): inactive; negative
- carcinogen call (Species: Mouse, Strain/Sex: C57BL/6 (wild type)/Male, Route: Inhalation, 33, 100, 300 ppm 6 hr/d, 5 d/wk for 26 wks, then no exposure for lifetime, 33, 100, 300 ppm 6 hr/d, 5 d/wk for 26 wks, then no exposure for lifetime, Tumor Site: Type of Lesion: Blood: Hematopoietic neoplasms (10, 21,16, 56%). Lymphoid tissue: Thymic lymphoma (0, 0,11, 28%)): active; positive (highest dose)
- carcinogen call (Species: Mouse, Strain/Sex: C57BL/6 (wild type)/Male, Route: Inhalation, 100, 300 ppm 6 hr/d, 5 d/wk for 26 wks, then no exposure for lifetime, 100, 300 ppm 6 hr/d, 5 d/wk for 26 wks, then no exposure for lifetime, Tumor Site: Type of Lesion: Blood: hematopoietic neoplasms (8, 25,30%). Lymphoid tissue: thymic lymphoma (0,17, 0%)): inactive; negative
- carcinogen call (Species: RAT, Strain/Sex: F344/FEMALE, Route: GAVAGE, 25, 50, 100 MG/KG IN CORN OIL 5 D/WK FOR 103 WK, 25, 50, 100 MG/KG IN CORN OIL 5 D/WK FOR 103 WK, Tumor Site: Type of Lesion: ORAL CAVITY: SQUAMOUS CELL PAPILLOMA OR CARCINOMA, EAR (ZYMBAL GLAND): CARCINOMA, ADENOMA OR CARCINOMA): active; positive
- carcinogen call (Species: RAT, Strain/Sex: F344/MALE, Route: GAVAGE, 50, 100, 200 MG/KG IN CORN OIL 5 D/WK FOR 103 WK, 50, 100, 200 MG/KG IN CORN OIL 5 D/WK FOR 103 WK, Tumor Site: Type of Lesion: INTEGUMENTARY SYSTEM (SKIN): SQUAMOUS CELL PAPILLOMA, SQUAMOUS CELL CARCINOMA, ORAL CAVITY: SQUAMOUS CELL PAPILLOMA, SQU): active; positive
- carcinogen call (Species: RAT, Strain/Sex: SPRAGUE-DAWLEY/FEMALE, Route: GAVAGE, 50, 250 MG/KG BW IN OLIVE OIL 1/D 4-5 D/WK FOR 52 WK (STUDY DURATION: LIFETIME), 50, 250 MG/KG BW IN OLIVE OIL 1/D 4-5 D/WK FOR 52 WK (STUDY DURATION: LIFETIME), Tumor Site: Type of Lesion: [BRAIN WAS ONLY SITE EVALUATED]): inactive; negative
- carcinogen call (Species: RAT, Strain/Sex: SPRAGUE-DAWLEY/FEMALE, Route: GAVAGE, 50, 250 MG/KG BW, 1/D, 4-5 D/WK FOR 52 WK, 50, 250 MG/KG BW, 1/D, 4-5 D/WK FOR 52 WK, Tumor Site: Type of Lesion: ZYMBAL GLAND: CARCINOMA, MAMMARY GLAND: CARCINOMA): active; positive
- carcinogen call (Species: RAT, Strain/Sex: SPRAGUE-DAWLEY/MALE,FEMALE, Route: GAVAGE, 500 MG/KG BW, 1/WK, Tumor Site: Type of Lesion: ORAL CAVITY: SQUAMOUS CELL CARCINOMA, ZYMBAL GLAND: CARCINOMA): active; positive
- carcinogen call (Species: RAT, Strain/Sex: SPRAGUE-DAWLEY/MALE, Route: GAVAGE, 50, 250 MG/KG BW IN OLIVE OIL 1/D 4-5 D/WK FOR 52 WK (STUDY DURATION: LIFETIME), 50, 250 MG/KG BW IN OLIVE OIL 1/D 4-5 D/WK FOR 52 WK (STUDY DURATION: LIFETIME), Tumor Site: Type of Lesion: [BRAIN WAS ONLY SITE EVALUATED]): inactive; negative
- carcinogen call (Species: RAT, Strain/Sex: SPRAGUE-DAWLEY/MALE, Route: GAVAGE, 50, 250 MG/KG BW, 1/D, 4-5 D/WK FOR 52 WK, 50, 250 MG/KG BW, 1/D, 4-5 D/WK FOR 52 WK, Tumor Site: Type of Lesion: HEMATOPOIETIC SYSTEM (LEUKEMIA)): active; positive
- carcinogen call (Species: RAT, Strain/Sex: STRAIN-CD/FEMALE, Route: INHALATION, 200 PPM 4 HR/D 5 D/WK FOR 7 WK THEN 7 HR/D FOR 12 WK THEN 300 PPM 7 HR/D 5 D/WK FOR 85 WK (STUDY DURATION: LIFESPAN), Tumor Site: Type of Lesion: MAMMARY GLAND: ADENOCARCINOMA, ORAL CAVITY: CARCINOMA, ZYMBAL GLAND: CARCINOMA, Tumor Site: Type of Lesion: MAMMARY GLAND: ADENOCARCINOMA, ORAL CAVITY: CARCINOMA, ZYMBAL GLAND: CARCINOMA): active; positive
- carcinogen call (Species: RAT, Strain/Sex: STRAIN-CD/FEMALE, Route: INHALATION, 200 PPM 4 HR/D FOR 7 WK THEN 7 HR/D FOR 12 WK THEN 300 PPM 7 HR/D 5 D/WK FOR 85 WK TO RATS ALSO EXPOSED IN UTERO (STU, Tumor Site: Type of Lesion: ZYMBAL GLAND: CARCINOMA, ORAL CAVITY: CARCINOMA, NASAL CAVITY: CARCINOMA, MAMMARY GLAND: ADENOCARCINOMA, LIVER: HEPATOMA, Tumor Site: Type of Lesion: ZYMBAL GLAND: CARCINOMA, ORAL CAVITY: CARCINOMA, NASAL CAVITY: CARCINOMA, MAMMARY GLAND: ADENOCARCINOMA, LIVER: HEPATOMA): active; positive
- carcinogen call (Species: RAT, Strain/Sex: STRAIN-CD/FEMALE, Route: INTRAGASTRIC, 50, 250 MG/KG IN OLIVE OIL 1/D 4-5 D/WK FOR 52 WK (STUDY DURATION: LIFESPAN), 50, 250 MG/KG IN OLIVE OIL 1/D 4-5 D/WK FOR 52 WK (STUDY DURATION: LIFESPAN), Tumor Site: Type of Lesion: ZYMBAL GLAND: CARCINOMA): active; positive
- carcinogen call (Species: RAT, Strain/Sex: STRAIN-CD/FEMALE, Route: INTRAGASTRIC, 500 MG/KG IN OLIVE OIL 1/D 4-5 D/WK FOR 104 WK (STUDY DURATION: 104 WK)): inactive; negative
- carcinogen call (Species: RAT, Strain/Sex: STRAIN-CD/FEMALE, Route: INTRAGASTRIC, 500 MG/KG IN OLIVE OIL 1/D 4-5 D/WK FOR 104 WK (STUDY DURATION: LIFESPAN), Tumor Site: Type of Lesion: ZYMBAL GLAND: CARCINOMA, LIVER: ANGIOSARCOMA, ORAL CAVITY: CARCINOMA, HEMOLYMPHORETICULAR: TUMOR, Tumor Site: Type of Lesion: ZYMBAL GLAND: CARCINOMA, LIVER: ANGIOSARCOMA, ORAL CAVITY: CARCINOMA, HEMOLYMPHORETICULAR: TUMOR): active; positive
- carcinogen call (Species: RAT, Strain/Sex: STRAIN-CD/MALE, Route: INHALATION, 200 PPM 4 HR/D 5 D/WK FOR 7 WK THEN 7 HR/D FOR 12 WK THEN 300 PPM 7 HR/D 5 D/WK FOR 85 WK TO RATS ALSO EXPOSED IN UTE, Tumor Site: Type of Lesion: ZYMBAL GLAND: CARCINOMA): active; positive
- carcinogen call (Species: RAT, Strain/Sex: STRAIN-CD/MALE, Route: INTRAGASTRIC, 50, 250 MG/KG IN OLIVE OIL 1/D 4-5 D/WK FOR 52 WK (STUDY DURATION: LIFESPAN), 50, 250 MG/KG IN OLIVE OIL 1/D 4-5 D/WK FOR 52 WK (STUDY DURATION: LIFESPAN), Tumor Site: Type of Lesion: HEMOLYMPHORETICULAR SYSTEM: TUMOR): active; positive
- carcinogen call (Species: RAT, Strain/Sex: STRAIN-CD/MALE, Route: INTRAGASTRIC, 500 MG/KG IN OLIVE OIL 1/D 4-5 D/WK FOR 104 WK (STUDY DURATION: 104 WK)): inactive; negative
- carcinogen call (Species: RAT, Strain/Sex: STRAIN-CD/MALE, Route: INTRAGASTRIC, 500 MG/KG IN OLIVE OIL 1/D 4-5 D/WK FOR 104 WK (STUDY DURATION: LIFESPAN), Tumor Site: Type of Lesion: ZYMBAL GLAND: CARCINOMA, ORAL CAVITY: CARCINOMA, NASAL CAVITY: CARCINOMA, SKIN: CARCINOMA, Tumor Site: Type of Lesion: ZYMBAL GLAND: CARCINOMA, ORAL CAVITY: CARCINOMA, NASAL CAVITY: CARCINOMA, SKIN: CARCINOMA): active; positive
- carcinogen call (Species: RAT, Strain/Sex: WISTAR/FEMALE, Route: GAVAGE, 500 MG/KG IN OLIVE OIL 1/D FOR 4 TO 5 D/WK FOR 104 WK (STUDY DURATION: LIFETIME), Tumor Site: Type of Lesion: ZYMBAL GLAND: CARCINOMA, ORAL CAVITY: CARCINOMA, NASAL CAVITY: CARCINOMA, Tumor Site: Type of Lesion: ZYMBAL GLAND: CARCINOMA, ORAL CAVITY: CARCINOMA, NASAL CAVITY: CARCINOMA): active; positive
- carcinogen call (Species: RAT, Strain/Sex: WISTAR/FEMALE, Route: INTRAGASTRIC, 500 MG/KG BW IN OLIVE OIL 1/D 4-5 D/WK FOR 104 WK (STUDY DURATION: LIFESPAN), Tumor Site: Type of Lesion: ZYMBAL GLAND: CARCINOMA, MAMMARY GLAND: ADENOCARCINOMA, HEMOLYMPHORETICULAR SYSTEM: TUMOR, Tumor Site: Type of Lesion: ZYMBAL GLAND: CARCINOMA, MAMMARY GLAND: ADENOCARCINOMA, HEMOLYMPHORETICULAR SYSTEM: TUMOR): active; positive
- carcinogen call (Species: RAT, Strain/Sex: WISTAR/MALE, Route: GAVAGE, 500 MG/KG IN OLIVE OIL 1/D FOR 4 TO 5 D/WK FOR 104 WK (STUDY DURATION: LIFETIME), Tumor Site: Type of Lesion: ZYMBAL GLAND: CARCINOMA, ORAL CAVITY: CARCINOMA, NASAL CAVITY: CARCINOMA, Tumor Site: Type of Lesion: ZYMBAL GLAND: CARCINOMA, ORAL CAVITY: CARCINOMA, NASAL CAVITY: CARCINOMA): active; positive
- carcinogen call (Species: RAT, Strain/Sex: WISTAR/MALE, Route: INTRAGASTRIC, 500 MG/KG BW IN OLIVE OIL 1/D 4-5 D/WK FOR 104 WK (STUDY DURATION: LIFESPAN), Tumor Site: Type of Lesion: ZYMBAL GLAND: CARCINOMA): active; positive

— PubChem BioAssay AID1259411 (Chemical Carcinogenesis Research Information System (CCRIS), 2018)
